Assay [1] can be described thus: Inhibition of Escherichia coli RNA polymerase.
A short description of assay [2]: Inhibition of Staphylococcus aureus RNA polymerase.
In assay [3] the test system is Mycobacterium tuberculosis. Description: Antibacterial activity against Mycobacterium tuberculosis H37Rv ATCC 27294 incubated for 10 days by GFP based fluorescence assay. In kind it is functional. The note with it: H37Rv ATCC 27294, 240 h.
Assay [4] concerns Staphylococcus aureus. Nature of the assay: Antibacterial activity against Staphylococcus aureus incubated for 18 hrs. The assay is classed as functional.
Assay [5] has as its system Bacillus subtilis. Nature of the assay: Antibacterial activity against Bacillus subtilis SCSIO BS01. The assay is classed as functional.
The subject of another assay is Bacillus thuringiensis. Description: Antibacterial activity against Bacillus thuringiensis SCSIO BT01. The assay is classed as functional.
For assay [6], the system named is Staphylococcus aureus. Description: Antibacterial activity against Staphylococcus aureus ATCC 29213. In kind it is functional.
The test system of assay [7] is Bacillus subtilis. Description: Antibacterial activity against Bacillus subtilis incubated for 24 hrs by standard broth dilution assay. The assay is classed as functional. (Dilution methods test growth across graded concentrations, often in twofold steps.)
For another assay, the system named is Escherichia coli. Description: Antibacterial activity against Escherichia coli incubated for 24 hrs by standard broth dilution assay. In kind it is functional.
Assay [8] relates to Pseudomonas aeruginosa. Description: Antibacterial activity against Pseudomonas aeruginosa incubated for 24 hrs by standard broth dilution assay. In kind it is functional.
The test system of assay [9] is Staphylococcus aureus. Description: Antibacterial activity against Staphylococcus aureus incubated for 24 hrs by standard broth dilution assay. In kind it is functional.
A further assay concerns Enterococcus faecalis. Nature of the assay: Antibacterial activity against Enterococcus faecalis ATCC 29212. The assay is classed as functional.
Assay [10] concerns Yersinia pseudotuberculosis. Nature of the assay: Inhibition of type 3 secretion system protein secretion in Yersinia pseudotuberculosis at 30 ug/ml incubated for 2 hrs by SDS-PAGE and densitometric analysis.
The test system of assay [11] is Pseudomonas aeruginosa. Nature of the assay: Antibacterial activity against Pseudomonas aeruginosa by broth dilution assay. In kind it is functional.
Assay [12] can be described thus: Antibacterial activity Bacillus pumilus against by broth dilution assay. The assay is classed as functional.
The subject of assay [13] is Bacillus subtilis. Nature of the assay: Antibacterial activity against Bacillus subtilis CMCC63501. The assay is classed as functional.
The test system of assay [14] is Staphylococcus epidermidis. Nature of the assay: Antibacterial activity against Staphylococcus epidermidis DSM 20044 incubated for 5 hrs by resazurin dye reduction based assay. The assay is classed as functional, organism-based. The note with it: DSM 20044, 5 h.
For assay [15], the system named is Bacillus subtilis. Description: Antibacterial activity against Bacillus subtilis DSM 347 incubated for 5 hrs by resazurin dye reduction based assay. The assay is classed as functional, organism-based. The note with it: DSM 347, 5 h. A general note: Resazurin is reduced to fluorescent resorufin, in cell work by metabolically active cells.

Converted amounts (≈) assume the structure as drawn. *1 amine or outer side, *2 acyl side, *3 side chain or, on linkers, in order; H or OH if unused. Where a SMILES comes first, the peptide text is derived from it. Bridges are numbered along the chain shown (N, C = ends). Roman numbers before positions name the chains, in order. [ ]: non-standard residue; d: D form. Actinocin(1to9) = Cc1c2oc3c(C)ccc(C(=O)[*:2])c3nc-2c(C(=O)[*:1])c(N)c1=O; NMeV = CN[C@H](C(=O)O)C(C)C; Sar = CNCC(=O)O

By IC50 is commonly meant the concentration that inhibits the measured activity by half. A low value points to higher potency. Turning to `CC[C@H](C)[C@H]1NC(=O)[C@@H](NC(=O)[C@H](C)[C@H](O)C(C)C)[C@@H](C)OC(=O)[C@H]2NC(=O)[C@@H](C(C)C)NC(=O)[C@@H](Cc3ccccc3)N(C)C(=O)[C@@H](NC1=O)c1ccc(cc1)O[C@H](C)[C@@](O)(CCl)/C=C\C(=O)NCC(=O)O2`, the figures for the IC50 in [1] and in assay [2] were 0.2 to 2 µM and 0.2 to 4 µM, respectively.

In general, MIC refers to the least concentration at which growth counts as inhibited. In turn, `Cc1c2oc3c(C)ccc(C(=O)N[C@@H]4C(=O)N[C@H](C(C)C)C(=O)N5CCC[C@H]5C(=O)N(C)CC(=O)N(C)[C@@H](C(C)C)C(=O)O[C@@H]4C)c3nc-2c(C(=O)N[C@@H]2C(=O)N[C@H](C(C)C)C(=O)N3CCC[C@H]3C(=O)N(C)CC(=O)N(C)[C@@H](C(C)C)C(=O)O[C@@H]2C)c(N)c1=O` [DACTINOMYCIN] (I: T[dV]P[Sar][NMeV] / II: T[dV]P[Sar][NMeV]; ester I:1-I:C, II:1-II:C; linker I:N-II:N via Actinocin(1to9)) came in with an MIC in assay [3] of 1 to 8 µg/mL (≈ 0.797 to 6.37 µM).

For the compound `C[C@@H]1O[C@](C)(C(=O)O)O[C@H]1/C=C/C=C/C=C/C(=O)O[C@H]1CC[C@H](c2ccc3c(c2O)C(=O)c2cc(O)c4c(c2C3=O)C(=O)[C@H](O)[C@](C)(O)C4)O[C@@H]1C`, the MIC in the assay on Staphylococcus aureus [4] was in the range of 2 to 6 µg/mL (≈ 2.78 to 8.35 µM).

As to `CC(C)=CCC/C(C)=C/C[C@@]12OC(C)(C)[C@H](Cl)C=C1C(=O)c1c(O)cc(O)cc1C2=O`, the MIC in the assay with Bacillus subtilis [5], against Bacillus thuringiensis and against Staphylococcus aureus [6] was 4 to 32 µg/mL (≈ 8.99 to 71.9 µM) throughout.

With `CC(C)=CCC/C(C)=C/C[C@@]12OC(C)(C)[C@H](Cl)C[C@]1(Cl)C(=O)c1c(O)cc(O)cc1C2=O`, the minimal inhibitory concentration (MIC) with Bacillus subtilis [5], in the assay on Bacillus thuringiensis and with Staphylococcus aureus [6] was no more than 2 µg/mL in each case.

`C[C@@H]1CCC/C=C/[C@@H]2O[C@H](C[C@@H](O)C/C=C\C=C\[C@H](O[C@@H]3O[C@H](CO)[C@@H](O)[C@H](O)[C@H]3O)C/C=C/C=C\C(=O)O1)[C@H]2O`: the MIC against Bacillus subtilis [7], against Escherichia coli, with Pseudomonas aeruginosa [8] and against Staphylococcus aureus [9] was 0.02 to 0.13 µg/mL (≈ 0.0344 to 0.224 µM) each time.

`CC[C@]1(O)C[C@@]2(O)c3c(c(C)cc(=O)n3C)C(=O)c3c(C)cc(=O)n1c32`: the MIC with Enterococcus faecalis, in the assay with Bacillus thuringiensis and in the assay on Staphylococcus aureus [6] was 1 to 4 µg/mL (≈ 2.81 to 11.2 µM) throughout.

For orientation: inhibition means the percentage by which the read-out fell short of the control. Low readings indicate a response near the control, high ones a response far below the control. With `C/C=C(\C)[C@H](C)[C@H](C)/C=C(C)/C=C/C/C(C)=C/Cc1cc(O)cc(OC)n1`, the inhibition in assay [10] was 45%.

In the case of `Cc1cc(=O)[nH]c2c1C(=O)c1c(C)cc(=O)n(C)c1C2=O`, the MIC in the assay with Enterococcus faecalis, with Bacillus thuringiensis and against Staphylococcus aureus [6] was 1 to 4 µg/mL (≈ 3.52 to 14.1 µM) in each case.

Turning to `CCCCCCCCCCCC(=O)N(CCO)CCO`, the MIC against Bacillus subtilis [7], in the assay with Escherichia coli, against Pseudomonas aeruginosa [8] and in the assay with Staphylococcus aureus [9] was 0.02 to 0.13 µg/mL (≈ 0.0696 to 0.452 µM) throughout.

On to `C[C@@H]1CCC/C=C/[C@@H]2O[C@@H](C/C=C\C=C\[C@H](O[C@@H]3O[C@H](CO)[C@@H](O)[C@H](O)[C@H]3O)C/C=C/C=C\C(=O)O1)C[C@@H](O)[C@H]2O`, for which the MIC in the assay with Bacillus subtilis [7], in the assay with Escherichia coli, against Pseudomonas aeruginosa [8] and in the assay with Staphylococcus aureus [9] was 0.02 to 0.13 µg/mL (≈ 0.0344 to 0.224 µM) in each case.

For the compound `C=C1CC[C@H](Cl)C(C)(C)[C@@H]1C[C@@]12OC(C)(C)[C@H](Cl)C[C@]1(Cl)C(=O)c1c(O)cc(O)cc1C2=O`, the MIC with Bacillus subtilis [5], in the assay on Bacillus thuringiensis and in the assay on Staphylococcus aureus [6] was no more than 2 µg/mL in each case.

Take `CCn1cc(C(=O)O)c(=O)c2ccc(C)nc21` [NALIDIXIC ACID]: the MIC (in the assay with Pseudomonas aeruginosa [11]; in [12]) was 1250 to 1500 µg/mL (≈ 5380 to 6460 µM) each time.

Turning to `C/C=C(\C)[C@H](O)[C@H](C)/C=C(C)/C=C/C/C(C)=C/Cc1nc(OC)c(OC)c(O)c1C`, the inhibition in assay [10] turned out to be 65%.

`CC1(C)S[C@@H]2[C@H](NC(=O)[C@H](N)c3ccccc3)C(=O)N2[C@H]1C(=O)O` [AMPICILLIN]: the MIC with Bacillus subtilis [13] fell in the range of 1.6 to 3.1 µg/mL (≈ 4.58 to 8.87 µM).

With `CCC(C)CCC[C@H](C(=O)OC)[C@@H](O)c1cccc2nc3c(C(=O)OC)cccc3nc12` (stereo partly drawn), the IC50 (in assay [14]; with Bacillus subtilis [15]) was 3.6 µg/mL (≈ 8.21 µM) each time.

Values taken from ChEMBL document CHEMBL4270488, “Antibacterial Compounds from Marine Bacteria, 2010-2015” (J Nat Prod, 2017).
